Values of other authors in patent publication US20230346892A1, “TREATMENT OF LONG BONE FRACTURES WITH ABALOPARATIDE” (Radius Health, Inc., priority 2021, published 2023).

How the values were obtained:
[1] = tested on: internally fixed femur fractures; conditions: rats with internally fixed femur fractures; Lanske et al. 2019

abaloparatide
fracture healing [1]: improved fracture healing
bone mineral density increases (osteoporosis; compared with teriparatide, treating osteoporosis, Sleeman 2019, Miller 2016): greater bone mineral density increases
hypercalcemia (osteoporosis; in vivo): less hypercalcemia
